Data set [1] in a line: Precipitation/solubility limit of the top test concentration. Particulars: for top non-precipitating conc.: precipitation in 100× stock solution or upon addition to culture medium.
Data set [2] has as its system γH2AX. Briefly: MultiFlow DNA Damage Kit flow cytometry, γH2AX in TK6 cells with rat liver S9. As to conditions: 4 hr exposure with 2% rat liver S9. Type of data set: cell-based. A general note: In flow cytometry, cells or beads pass a laser one at a time.
In data set [3] the test system is Phospho-Histone H3. Briefly: MultiFlow DNA Damage Kit flow cytometry, phospho-histone H3. In kind it is cell-based. As to conditions: TK6 cells with rat liver S9; effect particularly evident at 24 hrs for PhIP.
Data set [4] has as its system TK6 cells. Briefly: MultiFlow flow cytometry, polyploidy. Type of data set: cell-based. Particulars: TK6 cells with rat liver S9.
The test system of data set [5] is p53. In kind it is cell-based. As to conditions: 24 hr time point; TK6 cells, 4 hr exposure with 2% rat liver S9.
In data set [6] the test system is HepG2 cells. As to conditions: cited from earlier work.
In data set [7] the test system is male rat kidney. As to conditions: due to α2μ-globulin nephropathy; ref Kirkland et al., 2015; cited from earlier work.
Data set [8] has as its system TK6 cells. Briefly: Cytotoxicity by relative nuclei counts. In kind it is cell-based. As to conditions: TK6 cells with rat liver S9.

`CC(=O)Nc1ccc2c(c1)Cc1ccccc1-2` [2-Acetylaminofluorene] displayed a top non-precipitating conc. in data set [1] of 250 µM.
As for `Nc1ccc2cc3ccccc3cc2c1` [2-Aminoanthracene], the top non-precipitating conc. in data set [1] stood at 500 µM.
In the case of `O=[N+]([O-])c1ccc2c(c1)Cc1ccccc1-2` [2-Nitrofluorene], the γH2AX-associated fluorescence response result in data set [2] (4 hr time point) is “robust responses”; in data set [2] (24 hr time point) it was “considerably reduced”.
As to `Cn1c(N)nc2ncc(-c3ccccc3)cc21` [2-amino-1-methyl-6-phenylimidazo [4,5-b]pyridine], in data set [1], the top non-precipitating conc. turned out to be 250 µM. The γH2AX-associated fluorescence response result in data set [2] (4 hr time point) and in data set [2] (24 hr time point) was “concentration-related increases” throughout. Moreover, the “proportion of mitotic (p-H3 positive) cells” value in data set [3] is “concentration-dependent reductions”. For the same compound, in data set [4], the polyploid cells result is given as “not induced”. In addition, in data set [5], the p53 response entry was “higher p53 responses at 24 hr relative to the 4 hr time point”.
Turning to `Cc1cc2ncccc2c2nc(N)n(C)c12` [3,4-Dimethylimidazo[4,5-f]quinolin-2-amine], the “induction of MN in HepG2 cells” value in data set [6] is given as “weak inducer”.
`c1ccc2c(c1)cc1ccc3cccc4ccc2c1c34` [Benzo[a]pyrene] registered a top non-precipitating conc. in data set [1] of 250 µM.
In the case of `C=C(C)[C@H]1CC=C(C)CC1` [D-Limonene], the tumor finding result in data set [7] is “male rat kidney tumors”.
In the case of `CN(C)P(=O)(N(C)C)N(C)C` [Hexamethylphosphoramide], the “cytotoxicity (reductions to RNC)” value in data set [8] is reported as “no evidence of cytotoxicity”. The “proportion of mitotic (p-H3 positive) cells” value in data set [3] is “no evidence of cytotoxicity”.
On to `CCN(CC)N=O` [N-Nitrosodiethylamine (DEN), N-Nitrosodiethylamine], for which the “cytotoxicity (reductions to RNC)” value in data set [8] was “no evidence of cytotoxicity”. Also, the “proportion of mitotic (p-H3 positive) cells” value in data set [3] is given as “no evidence of cytotoxicity”.
Tunicamycin: the “top conc. due to solubility” value in data set [1] turned out to be 500 µM.

(Values after paper PMC4980245 (Environmental and molecular mutagenesis, 2016).)
